For series [1], the target named is T1, FLT3 (Homo sapiens, UniProt P36888).
T1 sequence (P36888 27-993): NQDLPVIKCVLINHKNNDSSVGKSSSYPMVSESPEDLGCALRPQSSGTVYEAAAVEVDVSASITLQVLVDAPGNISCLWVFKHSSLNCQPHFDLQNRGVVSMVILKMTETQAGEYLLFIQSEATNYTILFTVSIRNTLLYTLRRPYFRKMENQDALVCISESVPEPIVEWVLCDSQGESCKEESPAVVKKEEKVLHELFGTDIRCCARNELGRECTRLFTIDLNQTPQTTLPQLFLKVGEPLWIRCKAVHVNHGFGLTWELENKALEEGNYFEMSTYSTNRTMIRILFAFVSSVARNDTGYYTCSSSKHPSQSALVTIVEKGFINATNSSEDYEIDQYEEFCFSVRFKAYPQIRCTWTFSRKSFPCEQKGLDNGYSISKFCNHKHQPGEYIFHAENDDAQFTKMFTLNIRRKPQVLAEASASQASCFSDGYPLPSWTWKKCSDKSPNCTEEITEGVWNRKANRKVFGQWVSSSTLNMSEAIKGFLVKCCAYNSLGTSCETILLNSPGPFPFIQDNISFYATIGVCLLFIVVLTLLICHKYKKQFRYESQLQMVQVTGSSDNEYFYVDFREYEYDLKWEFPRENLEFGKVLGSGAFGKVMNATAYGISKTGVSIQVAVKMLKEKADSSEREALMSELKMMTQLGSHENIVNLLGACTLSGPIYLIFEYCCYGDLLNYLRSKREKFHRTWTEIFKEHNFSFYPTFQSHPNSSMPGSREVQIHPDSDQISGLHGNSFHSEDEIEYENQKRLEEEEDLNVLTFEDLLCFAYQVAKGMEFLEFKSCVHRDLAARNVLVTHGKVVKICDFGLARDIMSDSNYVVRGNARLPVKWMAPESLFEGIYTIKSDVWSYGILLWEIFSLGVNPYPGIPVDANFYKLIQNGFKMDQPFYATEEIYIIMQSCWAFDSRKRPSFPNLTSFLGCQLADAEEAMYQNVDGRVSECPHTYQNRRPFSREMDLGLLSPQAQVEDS
Nature of the series: KINOMEscan Kd determination against FLT3. The following applies: 11-point 3-fold dilution series, top concentration 5 μM. Format: binding. The procedure: (§1) Kds were determined using an 11-point 3-fold compound dilution series (top concentration 5 μM) with three DMSO control points.

For series [2], the target named is Aurora-B (Homo sapiens, UniProt Q96GD4). The series is described as follows: KINOMEscan Kd determination against Aurora-B. Format: binding. Conditions: 11-point 3-fold dilution series, top concentration 5 μM. As for the experimental part:
as §1

Series [3] addresses T2, FLT3-ITD (Homo sapiens, UniProt P36888, ITD).
T2 sequence (P36888 564-993): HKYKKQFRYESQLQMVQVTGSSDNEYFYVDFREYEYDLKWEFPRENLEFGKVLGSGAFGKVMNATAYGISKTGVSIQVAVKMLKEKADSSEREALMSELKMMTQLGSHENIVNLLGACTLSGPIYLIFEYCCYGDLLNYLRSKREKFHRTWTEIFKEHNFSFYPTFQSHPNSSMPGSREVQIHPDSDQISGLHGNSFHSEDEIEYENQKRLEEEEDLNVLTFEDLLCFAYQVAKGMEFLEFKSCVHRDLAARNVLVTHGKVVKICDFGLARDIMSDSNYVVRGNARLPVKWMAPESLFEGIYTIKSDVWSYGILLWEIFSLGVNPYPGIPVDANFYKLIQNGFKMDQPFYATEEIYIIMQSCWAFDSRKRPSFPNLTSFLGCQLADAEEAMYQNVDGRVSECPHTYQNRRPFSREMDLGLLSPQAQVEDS
Nature of the series: KINOMEscan Kd determination against FLT3-ITD. Format: binding. The following applies: 11-point 3-fold dilution series, top concentration 5 μM. As for the experimental part:
as §1

Series [4] addresses T3, Aurora-A (Homo sapiens, UniProt O14965).
T3 sequence (O14965 1-403): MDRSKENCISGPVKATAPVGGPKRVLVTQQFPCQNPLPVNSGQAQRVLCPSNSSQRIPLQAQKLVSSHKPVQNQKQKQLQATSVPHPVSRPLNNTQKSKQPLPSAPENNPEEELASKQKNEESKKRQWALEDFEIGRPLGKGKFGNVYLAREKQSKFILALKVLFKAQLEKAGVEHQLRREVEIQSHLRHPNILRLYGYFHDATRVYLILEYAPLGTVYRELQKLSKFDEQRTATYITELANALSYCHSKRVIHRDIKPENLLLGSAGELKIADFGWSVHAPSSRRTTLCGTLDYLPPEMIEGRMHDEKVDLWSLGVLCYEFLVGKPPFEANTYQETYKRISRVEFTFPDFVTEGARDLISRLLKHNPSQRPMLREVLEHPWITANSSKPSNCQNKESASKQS
The series is described as follows: KINOMEscan Kd determination against Aurora-A. Conditions: 11-point 3-fold dilution series, top concentration 5 μM. Format: binding. The procedure: as §1

The nature of series [5]: Metabolite profiling in mouse hepatocytes and MLM. The series is classed as in vitro ADME. Conditions: for % total metabolite response: MLM 1 mg/ml, 1 μM; for maximal metabolite abundance, % of T0 parent (LC-MS/MS response): mouse hepatocytes and MLM; for % T0 parent response, minor metabolites: mouse, matrix not stated. As for the experimental part:
(§2) Suspended hepatocyte incubations for the purposes of metabolite identification and CLint determination were conducted as described by [Wood et al. (2018)] in round-bottomed 350 μl 96-well polypropylene plates on a PHMP thermoshaker (Grant Instruments (Cambridge) Ltd. (Shepreth, UK)) at 37 °C and 900 rpm. […] Individual wells were quenched with 120 μl of methanol containing internal standard over a time course (Table 1) and an aliquot removed for analysis.
(§3) Prior to initiation of the reaction by the addition of NADPH (final concentration 1 mM), an aliquot was removed from each incubation and quenched in ice cold methanol containing internal standard (referred to as T0). NADPH was subsequently added to this solution for matrix matching. The remaining reaction (with addition of NADPH) was allowed to proceed for 60 min. At 0.5, 5, 15, 30 and 60 min aliquots were sampled and quenched as above. Incubations were conducted in singlicate; control incubations (substituting PBS for NADPH) were conducted simultaneously.
(§4) For the purpose of metabolite identification, samples were analysed using a Dionex Ultimate 3000 UHPLC system coupled to a ThermoScientific Q Exactive Plus orbitrap mass spectrometer (Thermo Fisher Scientific Inc., Waltham, USA). Separation of analytes was achieved using an Acquity UPLC HSS T3 column (1.8 μm, 100 × 2.1 mm) (Waters, Elstree, UK) at a temperature of 50 °C and a binary mobile phase gradient at a flow rate of 0.4 ml/min. Initial conditions comprised 10% solvent A (0.1% formic acid in water), 90% solvent B (methanol); this was ramped to 95% A at 12 min, immediately returned to initial conditions and held for the remaining 3 min of the method. The UV absorbance of samples at 230 nm and 260 nm was monitored using a Dionex Ultimate 3000 diode array detector. Sample analysis was by electrospray atmospheric pressure ionization combined with full scan acquisition in positive ion mode over a mass range 80–1200 m/z. The capillary voltage was 3.5 kV; desolvation gas and capillary temperatures were 450 °C and 275 °C respectively; sheath, aux and sweep gas flow rates were 55, 15 and 3 respectively. Full MS/dd-MS^2 (full MS scan followed by data dependent MS/MS) and Full MS/AIF (full MS scan followed by all ion fragmentation) workflows were used in combination.
(§5) Identification of metabolites and elucidation of their proposed structures was undertaken with the aid of the software Compound Discoverer (v2.0.0.303, Thermo Fisher Scientific Inc., Waltham, USA). RAW data files containing accurate mass data and fragmentation spectra generated in the acquisition software Chromeleon (v7.2 SR3 (7553), Thermo Fisher Scientific Inc., Waltham, USA) were input into Compound Discoverer and processed using the targeted workflow described in Fig. 1 of the Appendix. The final time point of a parallel incubation of a different compound was used as a sample blank and any chromatographic peaks identified with the same m/z and retention time as in this sample were marked as background compounds and therefore not considered as potential metabolites. The Compound Discoverer application combines accurate mass data, isotope pattern matching and predicted biotransformations based on the parent compound's structure to generate a series of expected and unexpected compounds or metabolites. These were manually filtered using a typical criteria of peak area greater than or equal to 5000 counts per sec; compound identified in samples of at least three time points and peak area ratio of compound in Tx relative to T0 greater than or equal to 2, where Tx represents any given time point. […] The fragmentation spectra of these analytes were compared to those of the parent to facilitate structural interpretation of biotransformations. […]

Series [6] is described as follows: Metabolite profiling in human hepatocytes and HLM. Format: in vitro ADME. The following applies: for metabolite abundance, % of T0 parent (LC-MS response): HLM only. The procedure:
as §2, §3, §4, §5

Series [7] can be described thus: Metabolite profiling in dog hepatocytes and DLM. The series is classed as in vitro ADME. The following applies: dog hepatocytes and microsomes of both sexes. The procedure:
as §2, §3
(§6) For the purpose of metabolite identification, samples were analysed using a Dionex Ultimate 3000 UHPLC system coupled to a ThermoScientific Q Exactive Plus orbitrap mass spectrometer (Thermo Fisher Scientific Inc., Waltham, USA). […] The UV absorbance of samples at 230 nm and 260 nm was monitored using a Dionex Ultimate 3000 diode array detector. […]

The nature of series [8]: Metabolite profiling in rat hepatocytes and RLM. The series is classed as in vitro ADME. As for the experimental part: as §2, §3, §6

The values below come from article PMC6892276 (European Journal of Pharmaceutical Sciences, 2019).

Broadly, the Kd is the equilibrium constant for the complex coming apart. Low readings indicate higher affinity, high ones lower affinity.

The structures appear in SMILES notation.

Chain of Aurora-B (Q96GD4 whole entry): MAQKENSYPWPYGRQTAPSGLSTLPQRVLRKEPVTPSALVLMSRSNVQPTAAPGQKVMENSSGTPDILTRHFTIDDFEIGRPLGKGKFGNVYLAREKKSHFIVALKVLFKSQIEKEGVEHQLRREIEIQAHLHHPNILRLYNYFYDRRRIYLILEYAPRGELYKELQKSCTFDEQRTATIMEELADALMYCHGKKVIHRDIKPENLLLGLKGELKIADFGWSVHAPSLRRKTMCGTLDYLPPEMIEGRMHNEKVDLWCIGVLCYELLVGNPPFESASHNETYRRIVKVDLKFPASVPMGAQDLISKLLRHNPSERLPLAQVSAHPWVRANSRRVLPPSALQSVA

On to `Cc1nn(C)cc1-c1nc2c(N3CCNCC3)c(Cl)cnc2[nH]1` [Compound M1], for which the Kd in series [1] stood at 7.9 nM; in series [2] it was 130 nM; in series [3] it was 82 nM; in series [4] it was 33 nM. Moreover, the “% total metabolite response” value in series [5] (peak of initial increase) was “up to 7%”. For the same compound, the “metabolite abundance, % of parent LC-MS response at T0” value (shortened to “metabolite abundance, % … at T0”) in series [6] (HLM, final sampled time point) is reported as 10.6%; in series [6] (human hepatocytes and HLM), “approximately 10%”; in series [6] (human hepatocytes, final sampled time point), 9.4%.
Consider `Cc1nn(C)cc1-c1nc2c(N3CC[N+]([O-])(Cc4ccc(Cl)cc4)CC3)c(Cl)cnc2[nH]1` [Compound M2], for which the “% total metabolite response” value in series [5] (within the first 30 min of incubation) is on record as greater than 25%; in series [6] (HLM 1 mg/ml, 1 μM, 60 min incubation) it was 3.5%. Moreover, the “maximal metabolite abundance, % of T0 parent (LC-MS/MS response)” value (shortened to “maximal metabolite abundance, %”) in series [5] is greater than 10%.
As to `Cc1n[nH]cc1-c1nc2c(N3CCN(Cc4ccc(Cl)cc4)CC3)c(Cl)cnc2[nH]1` [Compound M3], the “% T0 parent response, minor metabolites” value in series [5] was less than 2%. Also, the “maximal metabolite abundance, %” value in series [7] was greater than 10%. Besides, the “metabolite abundance, % … at T0” value in series [6] (human hepatocytes and HLM) is given as less than 2%.
As for `Cc1nn(C)cc1-c1nc2c(NCCNCc3ccc(Cl)cc3)c(Cl)cnc2[nH]1` [Compound M4], in series [8] (RLM, at most), the “metabolite abundance, % of parent” value was less than 2%. Further, the “maximal metabolite abundance, %” value in series [8] (rat hepatocytes) is reported as 8–10%. The “metabolite abundance, % … at T0” value in series [6] (human hepatocytes and HLM) was less than 2%.
As for `Cc1n[nH]cc1-c1nc2c(N3CCNCC3)c(Cl)cnc2[nH]1` [Compound M6], in series [5], the “% T0 parent response, minor metabolites” value was less than 2%. For the same compound, the “metabolite abundance, % of T0 parent (LC-MS response)” value in series [6] is less than 2%.
As for `Cc1nn(C)cc1-c1nc2c(NCCN)c(Cl)cnc2[nH]1` [Compound M7], the “maximal metabolite abundance, %” value in series [5] is greater than 10%. The “metabolite abundance, % of T0 parent (LC-MS response)” value in series [6] was less than 2%.
